Here are results for 5 molecules from patent US12495798B2, “Nicotinamide compound and herbicidal composition comprising compound” (KOREA RESEARCH INSTITUTE OF CHEMICAL TECHNOLOGY, priority 2019, dated 2025).

Common to all, as to type: in vivo
For one data set, the system named is crabgrass. Kind of data set: Herbicidal activity test against upland field weeds (foliar treatment test). More on the design: key to Foliar treatment herbicidal activity, Crabgrass: 0 (no control); 100 (complete control). Particulars: 50 g ai/ha, scale 0-100; for pest or weed control at 50 g/ha: Digitaria sanguinalis. The method, boiled down: (§1)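 Greenhouse-grown plants (30±5 °C, 14/10 h light/dark) foliar hand-sprayed with compound in 50% acetone, 0.1% Tween-20 at 50 or 75 g a.i./ha. Control visually scored 0 (none) to 100 (complete) versus untreated after 14 days, or 21 days if needed.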

A further data set deals with wheat. Kind of data set: Phytotoxicity test for upland field crops (foliar treatment test). More on the design: key: 0 (no harm); 9 (complete withered). The method, boiled down: (§2)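 Phytotoxicity was rated on a 0 (no harm) to 9 (complete withered) scale relative to untreated plants, 7 and 14 days after spraying. Crops had been grown in fertilized horticultural soil under greenhouse conditions before foliar application at 19˜300 g a.i./ha.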

The subject of a further data set is corn. The description is as above. Also on record: key: 0 (no harm); 9 (complete withered). The method, boiled down:
as §2

Another data set concerns sorghum. Kind of data set: Herbicidal activity test against upland field weeds (foliar treatment test). Also on record: key to Foliar treatment herbicidal activity, Sorghum: 0 (no control); 100 (complete control). Particulars: 50 g ai/ha, scale 0-100; for plant injury at 50 g/ha: Sorghum. The method, boiled down:
as §1

In the next data set the test system is velvetleaf. The description is as above. Particulars: 50 g ai/ha; for pest or weed control at 50 g/ha: Abutilon theophrasti, scale 0-100, read-out: Foliar treatment herbicidal activity, velvet leaf. The method, boiled down: as §1
The test system of the next data set is black nightshade. Described as above. More on the design: key to Foliar treatment herbicidal activity, black nightshade: 0 (no control); 100 (complete control). The note with it: 50 g ai/ha, scale 0-100. The method, boiled down:
as §1

Another data set relates to barnyard grass. The data set is described as above. Also on record: key to Foliar treatment herbicidal activity, barnyard grass: 0 (no control); 100 (complete control). Particulars: 50 g ai/ha, scale 0-100; for pest or weed control at 50 g/ha: Echinochloa crus-galli. The method, boiled down: as §1
Another data set concerns cocklebur. Described as above. The note with it: 50 g ai/ha, scale 0-100; for pest or weed control at 50 g/ha: Xanthium strumarium. The method, boiled down:
as §1

For another data set, the system named is quack grass. The data set is described as above. More on the design: key to Foliar treatment herbicidal activity, quack grass: 0 (no control); 100 (complete control). Particulars: 50 g ai/ha, scale 0-100. The method, boiled down:
as §1

A further data set has as its system indian jointvetch. Described as above. The note with it: 50 g ai/ha, scale 0-100. The method, boiled down:
as §1

In another data set the test system is fall panicum. The description is as above. The note with it: 50 g ai/ha, scale 0-100; for pest or weed control at 50 g/ha: Panicum dichotomiflorum. The method, boiled down: as §1
A further data set relates to bindweed. The description is as above. The note with it: 50 g ai/ha, scale 0-100. The method, boiled down:
as §1

[1] abbreviates: 50 g ai/ha, Wheat (7 days after treatment).
Setting [2] is: 50 g ai/ha, Wheat (14 days after treatment).
[3] abbreviates: 100 g ai/ha, Wheat (7 days after treatment).
[4] abbreviates: 100 g ai/ha, Wheat (14 days after treatment).
Setting [5] is: 50 g ai/ha, Corn (7 days after treatment).
Setting [6] is: 50 g ai/ha, Corn (14 days after treatment).
Setting [7] is: 100 g ai/ha, Corn (7 days after treatment).
The mark [8] stands for this setting: 100 g ai/ha, Corn (14 days after treatment).

`Cn1nnnc1NC(=O)c1ccc(C(F)(F)F)nc1COCc1nc(C(F)F)n(C)n1` [Compound No. 2-123]: the “Foliar treatment herbicidal activity, Crabgrass” value in the data set with crabgrass is 95. Also, the “Foliar treatment phytotoxicity, Wheat” value in the data set on wheat (setting [1]), in the data set with wheat (setting [2]), in the data set on wheat (setting [3]) and in the data set on wheat (setting [4]) was 0 in each case. The “Foliar treatment phytotoxicity, Corn” value in the data set on corn (setting [5]) is given as 3; in the data set on corn (setting [6]), 2; in the data set with corn (setting [7]) it was 4; in the data set on corn (setting [8]) it was 4. In the data set with sorghum, the “Foliar treatment herbicidal activity, Sorghum” value was found to be 70. Also, in the data set with velvetleaf (scale 0-100), the “Foliar treatment herbicidal activity, velvet leaf” value was determined as 70. The “Foliar treatment herbicidal activity, black nightshade” value in the data set on black nightshade came to 98. Moreover, the “Foliar treatment herbicidal activity, barnyard grass” value in the data set with barnyard grass stood at 95. Moreover, the “Foliar treatment herbicidal activity, Cocklebur” value with cocklebur stood at 90. Besides, the “Foliar treatment herbicidal activity, quack grass” value in the data set with quack grass was determined as 40. In addition, the “Foliar treatment herbicidal activity, Indian jointvetch” value in the data set on indian jointvetch stood at 70. For the same molecule, the “Foliar treatment herbicidal activity, Fall panicum” value with fall panicum turned out to be 95. Besides, the “Foliar treatment herbicidal activity, Bindweed” value in the data set with bindweed is listed as 80.
With `COCn1nnc(COCc2nc(C(F)(F)F)ccc2C(=O)Nc2nnnn2C)n1` [Compound No. 2-91, 2-(((2-(methoxymethyl)-2H-tetrazol-5-yl)methoxy)methyl)-N-(1-methyl-1H-tetrazol-5-yl)-6-(trifluoromethyl)nicotinamide], the pest or weed control at 50 g/ha in the data set on crabgrass was found to be 90%; with velvetleaf, 98%; in the data set on barnyard grass, 80%; in the data set on cocklebur it was 98%; in the data set on indian jointvetch, 95%; in the data set on fall panicum it was 70%. Also, the pest or weed control at 50 g/ha in the data set with bindweed was 70%. The “Foliar treatment phytotoxicity, Wheat” value with wheat (setting [1]), in the data set on wheat (setting [2]), with wheat (setting [3]) and with wheat (setting [4]) was 0 each time. Besides, the “Foliar treatment phytotoxicity, Corn” value in the data set on corn (setting [5]) was found to be 2; in the data set on corn (setting [6]), 1; in the data set on corn (setting [7]), 3; in the data set on corn (setting [8]) it was 3. In the data set with sorghum, this molecule registered a plant injury at 50 g/ha of 50%. Besides, in the data set on black nightshade, the “Foliar treatment herbicidal activity, black nightshade” value worked out at 100. Besides, in the data set with quack grass, the “Foliar treatment herbicidal activity, quack grass” value amounted to 0.
For `CCn1nnc(COCc2nc(C(F)(F)F)ccc2C(=O)Nc2nnnn2C)n1` [Compound No. 2-87, 2-(((2-ethyl-2H-tetrazol-5-yl)methoxy)methyl)-N-(1-methyl-1H-tetrazol-5-yl)-6-(trifluoromethyl)nicotinamide], in the data set with crabgrass, the “Foliar treatment herbicidal activity, Crabgrass” value was 0. Further, the “Foliar treatment phytotoxicity, Wheat” value with wheat (setting [1]), in the data set on wheat (setting [2]), in the data set with wheat (setting [3]) and in the data set with wheat (setting [4]) was 0 each time. The “Foliar treatment phytotoxicity, Corn” value with corn (setting [5]), in the data set with corn (setting [6]), in the data set with corn (setting [7]) and with corn (setting [8]) was 0 in each case. The “Foliar treatment herbicidal activity, Sorghum” value in the data set with sorghum turned out to be 0. Besides, the pest or weed control at 50 g/ha in the data set with velvetleaf came to 70%; in the data set with black nightshade (Solanum nigrum), 98%; in the data set with barnyard grass it was 10%; in the data set on cocklebur, 60%; with indian jointvetch it was 20%; with fall panicum, 40%. Also, the pest or weed control at 50 g/ha in the data set with bindweed was found to be 80%. Further, in the data set on quack grass, the “Foliar treatment herbicidal activity, quack grass” value is 0.
`CCCn1nnnc1NC(=O)c1ccc(C(F)(F)F)nc1COCc1nnn(CC)n1` [Compound No. 2-89, 2-(((2-ethyl-2H-tetrazol-5-yl)methoxy)methyl)-N-(1-propyl-1H-tetrazol-5-yl)-6-(trifluoromethyl)nicotinamide]: the pest or weed control at 50 g/ha in the data set with crabgrass turned out to be 60%; with velvetleaf it was 50%; in the data set with barnyard grass, 95%; in the data set with cocklebur, 90%; with indian jointvetch, 40%; with fall panicum, 90%. The molecule further showed a pest or weed control at 50 g/ha in the data set with bindweed of 70%. Also, the “Foliar treatment phytotoxicity, Wheat” value in the data set on wheat (setting [1]), with wheat (setting [2]), in the data set on wheat (setting [3]) and in the data set with wheat (setting [4]) was 0 each time. The “Foliar treatment phytotoxicity, Corn” value with corn (setting [5]), in the data set on corn (setting [6]), in the data set with corn (setting [7]) and in the data set with corn (setting [8]) was 0 in each case. This molecule also showed a plant injury at 50 g/ha in the data set on sorghum of 50%. Besides, in the data set on black nightshade, the “Foliar treatment herbicidal activity, black nightshade” value stood at 100. The “Foliar treatment herbicidal activity, quack grass” value in the data set on quack grass turned out to be 0.
Regarding `CCn1nnc(COCc2nc(C(F)(F)F)ccc2C(=O)Nc2nnnn2CC)n1` [Compound No. 2-88, N-(1-ethyl-1H-tetrazol-5-yl)-2-(((2-ethyl-2H-tetrazol-5-yl)methoxy)methyl)-6-(trifluoromethyl)nicotinamide], the pest or weed control at 50 g/ha in the data set on crabgrass turned out to be 20%; in the data set on velvetleaf, 70%; in the data set on cocklebur, 70%; in the data set on indian jointvetch, 60%; in the data set with fall panicum, 40%; in the data set with bindweed, 70%. Further, the “Foliar treatment phytotoxicity, Wheat” value with wheat (setting [1]), in the data set on wheat (setting [2]), with wheat (setting [3]) and with wheat (setting [4]) was 0 each time. Besides, the “Foliar treatment phytotoxicity, Corn” value with corn (setting [5]), in the data set on corn (setting [6]), in the data set with corn (setting [7]) and with corn (setting [8]) was 0 in each case. For the same molecule, the “Foliar treatment herbicidal activity, Sorghum” value in the data set on sorghum was 0. In addition, the “Foliar treatment herbicidal activity, black nightshade” value in the data set on black nightshade was 100. Further, the “Foliar treatment herbicidal activity, barnyard grass” value in the data set on barnyard grass is 0. The “Foliar treatment herbicidal activity, quack grass” value in the data set with quack grass is 0.
